From ChEMBL document CHEMBL1139886, “Synthesis and characterization of constrained peptidomimetic dipeptidyl peptidase IV inhibitors: amino-lactam boroalanines” (J Med Chem, 2007)
pIC50, pKi: −log10 of the molar value.

Key:
Dipeptidyl peptidase 4 [1] = biological target: T1, Dipeptidyl peptidase 4 (Homo sapiens, UniProt P27487); assay: Inhibition of human placental DPP4
Dipeptidyl peptidase 4 [2] = biological target: T1, Dipeptidyl peptidase 4; assay: Inhibition of human placental DPP4 at pH 2
Dipeptidyl peptidase 4 [3] = biological target: T1, Dipeptidyl peptidase 4; assay: Inhibition of human placental DPP4 at pH 8

T1 sequence (P27487 whole entry): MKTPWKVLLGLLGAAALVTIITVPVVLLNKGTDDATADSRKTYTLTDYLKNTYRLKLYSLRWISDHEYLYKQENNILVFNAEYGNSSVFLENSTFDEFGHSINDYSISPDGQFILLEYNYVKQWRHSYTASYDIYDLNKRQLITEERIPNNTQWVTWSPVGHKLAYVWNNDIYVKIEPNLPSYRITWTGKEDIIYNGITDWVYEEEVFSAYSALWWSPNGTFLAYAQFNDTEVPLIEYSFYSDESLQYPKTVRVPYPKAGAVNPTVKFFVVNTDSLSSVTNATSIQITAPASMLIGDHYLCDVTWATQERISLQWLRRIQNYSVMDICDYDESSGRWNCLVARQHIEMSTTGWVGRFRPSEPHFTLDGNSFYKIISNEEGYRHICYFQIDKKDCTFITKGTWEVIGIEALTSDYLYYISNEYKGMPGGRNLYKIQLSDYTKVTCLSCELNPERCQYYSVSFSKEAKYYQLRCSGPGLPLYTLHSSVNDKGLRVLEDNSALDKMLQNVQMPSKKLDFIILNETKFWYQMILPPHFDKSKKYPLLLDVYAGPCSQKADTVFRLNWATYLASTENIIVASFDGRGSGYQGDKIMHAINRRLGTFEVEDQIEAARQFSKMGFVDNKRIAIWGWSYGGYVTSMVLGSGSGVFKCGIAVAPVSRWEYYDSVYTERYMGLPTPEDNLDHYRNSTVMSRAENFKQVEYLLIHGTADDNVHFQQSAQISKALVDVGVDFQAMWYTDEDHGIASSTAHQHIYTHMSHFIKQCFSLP

pKi (Dipeptidyl peptidase 4 [1]) | pIC50 (Dipeptidyl peptidase 4 [2]) | pIC50 (Dipeptidyl peptidase 4 [3]) | Compound
8.64 | 8.28 | 8.38 | C[C@@H](B(O)O)N1CC[C@@H](N)C1=O
5.96 | 6.32 | 6.34 | C[C@@H](B(O)O)N1CC[C@H](N)C1=O
